Values quoted from earlier work, collected in patent US20050163873A1, “Methods and formulations for treating glaucoma” (priority 2004, published 2005).

Assays:
[1] = system: inducible nitric oxide synthase (iNOS)
[2] = folic acid 400 μg associated with vitamin B6 and B12
[3] = system: cultured neurons from embryonic mouse cortex and striatum
[4] = system: primary cultures of cerebellar neurons
retina = conditions: guinea pig, in vivo
[5] = system: cultured neuronal cells and astrocytes; conditions: pretreatment of cultured neuronal cells and astrocytes
diabetic rats [6] = system: diabetic rats
rabbits [7] = system: rabbits
hippocampal CA1 neurons = conditions: central infusion after forebrain ischemia, gerbil
heme oxygenase 1 = conditions: neuronal cell cultures
diabetic rats [8] = system: diabetic rats; remark: listed apart in the source
[9] = system: goldfish retinal explants; conditions: post-crush goldfish retinal explants, in the presence of fetal calf serum
[10] = system: human Tenon's capsule fibroblast; conditions: human Tenon's capsule fibroblasts
rabbits [11] = system: rabbits; remark: listed apart in the source
[12] = system: tumor necrosis factor-alpha (TNF-α) and nitric oxide (NO)
HIV-1 enzyme integrase = HIV-1 enzyme integrase (Human immunodeficiency virus type 1 group M subtype B, UniProt P04585)
[13] = system: nitric oxide and tumor necrosis factor alpha
[14] = system: cultured retinal ganglion cells

For N[C@H]1C(O)O[C@H](CO)[C@@H](O)[C@@H]1O (stereo partly shown) [glucosamine], the “inducible nitric oxide synthase (iNOS) inhibition” value [1] is given as “inhibits”.
For Nc1nc2ncc(CNc3ccc(C(=O)N[C@@H](CCC(=O)O)C(=O)O)cc3)nc2c(=O)[nH]1 [folic acid], the “reduction of homocysteine levels” value [2] is given as 30%.
For CC(=O)N[C@@H](CS)C(=O)O [N-acetyl-L-cysteine], the “neuronal cell survival rate” value [3] is given as “increased”.
For C[N+](C)(C)CC(O)CC(=O)[O-] (stereo not shown) [Carnitine], the glutamate neurotoxicity [4] is given as “prevents” and the “retinal injury following ischemia-reperfusion injury” value (retina) is given as “prevent”.
In the case of CC(C)=CCC[C@](C)(O)[C@H]1CC[C@]2(C)[C@@H]1[C@H](O)C[C@@H]1[C@@]3(C)CC[C@H](O[C@@H]4O[C@H](CO)[C@@H](O)[C@H](O)[C@H]4O[C@@H]4O[C@H](CO)[C@@H](O)[C@H](O)[C@H]4O)C(C)(C)[C@@H]3CC[C@]12C [Ginsenoside Rg3], the “neuroprotective effects on cultured cortical cells” value (cultured cortical cells) is given as “significant neuroprotective effects”.
In the case of COC1=C(OC)C(=O)C(C/C=C(\C)CC/C=C(\C)CC/C=C(\C)CC/C=C(\C)CC/C=C(\C)CC/C=C(\C)CC/C=C(\C)CC/C=C(\C)CC/C=C(\C)CCC=C(C)C)=C(C)C1=O [coenzyme Q10], the “cell death due to glutamate neurotoxicity” value [5] is listed as “inhibited cell death”.
In the case of O=C(O)CCCCC1CCSS1 (stereo not drawn) [alpha-lipoic acid, Alpha-lipoic acid], the amount of leukostasis (diabetic rats [6]) is listed as “normalized”.
For C=CCSSC[C@H](N)C(=O)O [S-Allylmercaptocysteine], the IOP (rabbits [7]) is listed as “lower IOP”.
In the case of CC(C)=CCC[C@](C)(O[C@@H]1O[C@H](CO[C@@H]2O[C@H](CO)[C@@H](O)[C@H](O)[C@H]2O)[C@@H](O)[C@H](O)[C@H]1O)[C@H]1CC[C@]2(C)[C@@H]1[C@H](O)C[C@@H]1[C@@]3(C)CC[C@H](O[C@@H]4O[C@H](CO)[C@@H](O)[C@H](O)[C@H]4O[C@@H]4O[C@H](CO)[C@@H](O)[C@H](O)[C@H]4O)C(C)(C)[C@@H]3CC[C@]12C [Ginsenoside Rb1, ginsenoside Rb1], the “neuroprotective effects on cultured cortical cells” value (cultured cortical cells) is listed as “significant neuroprotective effects” and the “protection of hippocampal CA1 neurons against lethal ischemic damage” value (hippocampal CA1 neurons) is listed as “protects”.
In the case of Oc1ccc(C=Cc2cc(O)cc(O)c2)cc1 [resveratrol, Resveratrol], the “heme oxygenase 1” value (heme oxygenase 1) is given as “induces”.
For NCCS(=O)(=O)O [Taurine], the ATPase activity (diabetic rats [8]) is listed as “preserves”, the lipid peroxidation (diabetic rats [8]) is listed as “significantly decreases” and the neuritic outgrowth [9] is listed as “increased length and density of neurites”.
In the case of Cc1c(C)c2c(c(C)c1O)CC[C@@](C)(CCC[C@H](C)CCC[C@H](C)CCCC(C)C)O2 [D-alpha-tocopherol], the amount of leukostasis (diabetic rats [6]) is listed as “prevented the increases in leukostasis”, the retinal blood flow (diabetic rats [6]) is listed as “prevented” and the fibroblast proliferation [10] is listed as “inhibit”. The “results of filtering surgery” value (rabbits [11]) was “improve the results”.
For COc1cc(C[C@H]2C(=O)OC[C@@H]2Cc2ccc(OC)c(OC)c2)ccc1O [Arctigenin], the “tumor necrosis factor-alpha (TNF-α) and nitric oxide (NO) production” value [12] is given as “inhibit”, the glutamate toxicity (cultured neurons) is given as “protect” and the “HIV-1 enzyme integrase inhibition” value (HIV-1 enzyme integrase) is given as “inhibit”. The “DNA topoisomerase II inhibition” value (DNA topoisomerase II) was “inhibitor”.
In the case of O=c1c(O)c(-c2ccc(O)c(O)c2)oc2cc(O)cc(O)c12 [Quercetin], the “release of nitric oxide and tumor necrosis factor alpha” value [13] is listed as “inhibits”, the oxidative injury (cortical cell cultures) is listed as “neuroprotective” and the “progression of selenite-induced cataract” value (rats) is listed as “slow the progression”.
For C/C1=C2/[N-][C@H]([C@H](CC(N)=O)[C@@]2(C)CCC(=O)NC[C@@H](C)OP(=O)([O-])O[C@H]2[C@@H](O)[C@@H](n3cnc4cc(C)c(C)cc43)O[C@@H]2CO)[C@]2(C)N=C(/C(C)=C3N=C(/C=C4N=C1[C@@H](CCC(N)=O)C\4(C)C)[C@@H](CCC(N)=O)[C@]\3(C)CC(N)=O)[C@@H](CCC(N)=O)[C@]2(C)CC(N)=O.[CH3-].[Co+3] [Methylcobalamin], the glutamate-induced neurotoxicity [14] is listed as “protects”.
In the case of C[N+](C)(C)CCOP(=O)(O)OP(=O)([O-])OC[C@H]1O[C@@H](n2ccc(N)nc2=O)[C@H](O)[C@@H]1O [citicoline, Citicoline], the “visual evoked potential and pattern electroretinography (ERG) parameters” value (patients with glaucoma) is listed as “significant (P<0.01) improvement”.
